pIC50: −log10 of the molar value. Values joined by “and” are separate entries in the source; they are usually repeats but may differ in a detail not shown here. Equal values may be shown once.
Target: T1, Human KIF18A (amino acid sequence 1-417) (Homo sapiens, UniProt Q8NI77)
T1 construct: purchased Viva Biotech (Shanghai) Ltd
T1 sequence (Q8NI77 1-417): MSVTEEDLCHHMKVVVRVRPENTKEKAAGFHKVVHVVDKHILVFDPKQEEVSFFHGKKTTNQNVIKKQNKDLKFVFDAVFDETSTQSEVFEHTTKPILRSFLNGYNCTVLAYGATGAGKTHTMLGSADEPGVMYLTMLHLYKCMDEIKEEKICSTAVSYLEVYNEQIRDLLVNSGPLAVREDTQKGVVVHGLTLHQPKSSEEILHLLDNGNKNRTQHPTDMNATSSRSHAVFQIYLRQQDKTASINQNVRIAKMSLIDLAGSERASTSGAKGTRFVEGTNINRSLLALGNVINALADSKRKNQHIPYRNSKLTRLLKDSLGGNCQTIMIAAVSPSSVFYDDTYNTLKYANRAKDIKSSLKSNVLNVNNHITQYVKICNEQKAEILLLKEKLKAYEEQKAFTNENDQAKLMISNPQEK
Assay: Enzymatic activity test (ADP-Glo, microtubule-stimulated ATPase)
Format: biochemical
Settings: 60 µg/mL microtubules, 25 µM ATP, 2.5 nM KIF18A protein, 120 min at ambient temperature, chemiluminescence; read-out: KIF18A IC50
Method: Materials: Human KIF18A (amino acid sequence 1-417) was purchased from Viva Biotech (Shanghai) Ltd.; the ADP-Glo™ protein kinase kit was acquired from Promega, USA; tubulin was sourced from Cytoskeleton, USA; and the 384-well assay plate and Envision multifunctional microplate reader were obtained from PerkinElmer, USA.
Enzymatic Activity Test: The compound powder was dissolved in DMSO to prepare a stock solution of 10 mM. Then gradient dilution was performed for the compounds in the microplate to achieve a final concentration of 0-10 µM. Then, 2.5 µL each of tubulin, compound, ATP, and KIF18A protein were added to the microplate in sequence for reaction at ambient temperature for 120 min. The final concentrations in the enzyme reaction were 60 µg/mL for microtubules, 25 µM for ATP, and 2.5 nM for KIF18A protein. After the enzyme reaction, 10 µL of ADP-GLO reaction reagent was added to each well and incubated at room temperature for 30 min. After that, 20 µL of detection reagent was added to each well and incubated at room temperature for 30 min in the dark. Finally, chemiluminescence detection was performed using the PerkinElmer Envision.

Compound | pIC50
2-Hydroxy-N-(8-methyl-2^1,3-dione-2^2,2^3-dihydro-2^1H-4,6-diaza-5(2,6)-pyridin-1(1,4)-piperidin-2(5,4)-indenoundecan e-9-en-2^7-yl)ethane-1-sulfonamide [Example 38] | 6.95
Cc1cc2nc(n1)N1CCC(F)(F)C(/C=C/CCC3CCN(CC3)c3cc(NS(=O)(=O)CCO)ccc3-n3cc-2nn3)C1 (racemic) [Example 86, N-((3^4,8)-1^4,1^4-difluoro-2^6-methyl-3^1H-2(2,4)-pyrimidin-1(1,3),5(1,4)-dipiperidin-3(4,1)-triazole-4(1,2)-benzoazacyclononane-8-en-44-yl)-2-hydroxyethane-1-sulfonamide] | 6.45
Cc1cc2nc(n1)N1CCC(F)(F)C(/C=C\CC3CCN(CC3)c3cc(NS(=O)(=O)CCO)ccc3-c3cn-2nn3)C1 (single isomer, unassigned) [Example 84A, N-((3^4Z,7Z)-1^4,1^4-difluoro-2^6-methyl-3^1H-2(2,4)-pyrimidin-1(1,3),5(1,4)-dipiperidin-3(1,4)-triazole-4(1,2)-benzocyclooct-7-en-4^4-yl)-2-hydroxyethane-1-sulfonamide] | 6.51
Cc1cc2nc(n1)N1CCC(F)(F)C(/C=C\CC3CCN(CC3)c3cc(NS(=O)(=O)CCO)ccc3-c3cn-2nn3)C1 (single isomer, unassigned) [Example 84B, N-((3^4Z,7Z)-1^4,1^4-difluoro-2^6-methyl-3^1H-2(2,4)-pyrimidin-1(1,3),5(1,4)-dipiperidin-3(1,4)-triazole-4(1,2)-benzocyclooct-7-en-4^4-yl)-2-hydroxyethane-1-sulfonamide] | 6.59
Cc1cc2nc(n1)N1CCC(F)(F)C(/C=C/CC3CC4(C3)CN(C4)c3cc(NS(=O)(=O)CCO)ccc3C(=O)N2)C1 (stereo not shown) [Example 47, N-(6^4,6^4-difluoro-5^1-methyl-3-oxo-4-aza-5(4,2)-pyrimidin-6(1,3)-piperidin-1(1,3)-azetidin-2(1,2)-benzene-10(1,3)-cyclobutyramide-7-en-2^5-yl)-2-hydroxyethane-1-sulfonamide] | 6.25 and 6.20
COc1cc2nc(n1)N1CCC(F)(F)C(CCCc3c(F)cc(cc3F)-c3cc(NS(=O)(=O)CCO)ccc3C(=O)N2)C1 (stereo not shown) [Example 59, 2-hydroxy-N-(1^4,1^4,6^3,6^5-tetrafluoro-2^6-methoxy-4-oxo-3-aza-2(2,4)-pyrimidin-1(1,3)-piperidin-5(1,2),6(1,4)-diphenylheterocyclononane-54-yl)ethane-1-sulfonamide] | 6.65
COc1cc2nc(n1)N1CCC(F)(F)C(/C=C\C3=CC=C(S3)c3cc(NS(=O)(=O)CCO)ccc3C(=O)N2)C1 (stereo not shown) [Example 60, N-(2^4,2^4-difluoro-1^1-methoxy-7-oxo-8-aza-1(2,4)-pyrimidin-2(1,3)-piperidin-5(2,5)-thiophene-6(1,2)-benzenecyclooctane-3-en-6^5-yl)-2-hydroxyethane-1-sulfonamide] | 7.40
COc1cc2nc(n1)N1CCC(F)(F)C(CCC3=CC=C(S3)c3cc(NS(=O)(=O)CCO)ccc3C(=O)N2)C1 (stereo not shown) [Example 61, N-(2^4,2^4-difluoro-1^6-methoxy-7-oxo-8-aza-1(2,4)-pyrimidin-2(1,3)-piperidin-5(2,5)-thiophene-6(1,2)-benzeneheterocyclooctan-6^3-yl)-2-hydroxyethane-1-sulfonamide] | 7.22
Cc1cc2nc(n1)N1CCC(F)(F)C(/C=C\C3=CC=C(S3)c3cc(NS(=O)(=O)CCO)ccc3C(=O)N2)C1 (stereo not shown) [Example 62, N-(2^4,2^4-difluoro-1^6-methyl-7-oxo-8-aza-1(2,4)-pyrimidin-2(1,3)-piperidin-5(2,5)-thiophene-6(1,2)-benzeneheterocyclooct-3-en-6^5-yl)-2-hydroxyethane-1-sulfonamide] | 7.46
Cc1cc2nc(n1)N1CCC(F)(F)C(CCC3=CC=C(S3)c3cc(NS(=O)(=O)CCO)ccc3C(=O)N2)C1 (stereo not shown) [Example 63, N-(2^4,2^4-difluoro-1^6-methyl-7-oxo-8-aza-1(2,4)-pyrimidin-2(1,3)-piperidin-5(2,5)-thiophene-6(1,2)-benzeneheterocyclooctan-6^5-yl)-2-hydroxyethane-1-sulfonamide] | 6.90
COc1cc2nc(n1)N1CCC(F)(F)C(/C=C\CC3=CC=C(S3)c3cc(NS(=O)(=O)CCO)ccc3C(=O)N2)C1 (stereo not shown) [Example 64, N-(1^4,1^4-difluoro-2^6-methoxy-4-oxo-3-aza-2(2,4)-pyrimidin-1(1,3)-piperidin-6(2,5)-thiophene-5(1,2)-benzoazacyclon-8-en-5^4-yl)-2-hydroxyethane-1-sulfonamide] | 7.01
COc1cc2nc(n1)N1CCC(F)(F)C(CCCC3=CC=C(S3)c3cc(NS(=O)(=O)CCO)ccc3C(=O)N2)C1 (stereo not shown) [Example 65, N-(1^4,1^4-difluoro-2^6-methoxy-4-oxo-3-aza-2(2,4)-pyrimidin-1(1,3)-piperidin-6(2,5)-thiophene-5(1,2)-benzoazacyclononane-5^4-yl)-2-hydroxyethane-1-sulfonamide] | 6.87
Cc1cc2nc(n1)N1CCC(F)(F)C(C=CCc3csc(c3)-c3cc(NS(=O)(=O)CCO)ccc3C(=O)N2)C1 (stereo not shown) [Example 66, N-(1^4,1^4-difluoro-2^6-methyl-4-oxo-3-aza-2(2,4)-pyrimidin-1(1,3)-piperidin-6(2,4)-thiophene-5(1,2)-benzoazacyclon-8-en-5^4-yl)-2-hydroxyethane-1-sulfonamide] | 7.37
Cc1cc2nc(n1)N1CCC(F)(F)C(CCCc3csc(c3)-c3cc(NS(=O)(=O)CCO)ccc3C(=O)N2)C1 (stereo not shown) [Example 68, N-(1^4,1^4-difluoro-2^6-methyl-4-oxo-3-aza-2(2,4)-pyrimidin-1(1,3)-piperidin-6(2,4)-thiophene-5(1,2)-benzoazacyclononane-5^4-yl)-2-hydroxyethane-1-sulfonamide] | 6.81
Cc1cc2nc(n1)N1CCC(F)(F)C(CCc3csc(c3)-c3cc(NS(=O)(=O)CCO)ccc3C(=O)N2)C1 (stereo not shown) [Example 69, N-(2^4,2^4-difluoro-1^6-methyl-7-oxo-8-aza-1(2,4)-pyrimidin-2(1,3)-piperidin-5(2,4)-thiophene-6(1,2)-benzeneheterocyclooctan-6^5-yl)-2-hydroxyethane-1-sulfonamide] | 7.35
Cc1cc2nc(n1)NCC(C)C=CC1=CC=C(S1)c1cc(NS(=O)(=O)CCO)ccc1C(=O)N2 (stereo not shown) [Example 70, N-(5^6,8-dimethyl-3-oxo-4,6-diaza-5(4,2)-pyrimidin-1(2,5)-thiophene-2(1,2)-benzenecyclodec-9-en-25-yl)-2-hydroxyeth ane-1-sulfonamide] | 6.60

System: OVCAR3 cells
Assay: Cell proliferation activity test (CyQUANT Direct)
Format: cell-based
Settings: 3 days, 0.2% DMSO, CyQUANT fluorescence
Method: Materials and Cells: OVCAR3 cells were purchased from Nanjing Cobioer Biosciences Co., Ltd. RPMI-1640 medium, fetal bovine serum, and the CyQUANT Direct Cell Proliferation Assay kit were purchased from Thermo Fisher Scientific, USA; 96-well cell culture plates were sourced from Corning, USA.
Cell Culture: OVCAR3 cells were cultured with RPMI-1640 medium containing 10% fetal bovine serum and incubated in a 5% CO2 incubator at 37°C. Only cells in the logarithmic growth phase could be used for the test.
OVCAR3 cells were inoculated into a 96-well cell culture plate at 90 µL per well and incubated overnight in a 5% CO2 incubator at 37°C. The compound powder was dissolved in DMSO to prepare a stock solution of 10 mM. Then gradient dilution was performed for the compounds in the microplate to achieve a final concentration of 0-10 µM. 10 µL of cell culture medium containing compounds was added to each well to make the final DMSO content 0.2%. The cell plates were incubated in a 5% CO2 incubator at 37°C for 3 days. 100 µL of CyQUANT detection reagent was added to each well, reacted at 37°C for 60 min, and fluorescence detection was performed using the PerkinElmer Envision.

Compound | pIC50
Cc1cc2nc(n1)N1CCC(F)(F)C(/C=C\CC3CCN(CC3)c3cc(NS(=O)(=O)CCO)ccc3-c3cn-2nn3)C1 (single isomer, unassigned) [Example 84A, N-((3^4Z,7Z)-1^4,1^4-difluoro-2^6-methyl-3^1H-2(2,4)-pyrimidin-1(1,3),5(1,4)-dipiperidin-3(1,4)-triazole-4(1,2)-benzocyclooct-7-en-4^4-yl)-2-hydroxyethane-1-sulfonamide] | 7.59
Cc1cc2nc(n1)N1CCC(F)(F)C(/C=C\CC3CCN(CC3)c3cc(NS(=O)(=O)CCO)ccc3-c3cn-2nn3)C1 (single isomer, unassigned) [Example 84B, N-((3^4Z,7Z)-1^4,1^4-difluoro-2^6-methyl-3^1H-2(2,4)-pyrimidin-1(1,3),5(1,4)-dipiperidin-3(1,4)-triazole-4(1,2)-benzocyclooct-7-en-4^4-yl)-2-hydroxyethane-1-sulfonamide] | 6.33

Same assay, conditions: Homo sapiens, OVCAR-3, 72 h, 3 days, 0.2% DMSO, CyQUANT fluorescence

Compound | pIC50
Cc1cc2nc(n1)N1CCC(F)(F)C(/C=C/CCC3CCN(CC3)c3cc(NS(=O)(=O)CCO)ccc3-n3cc-2nn3)C1 (racemic) [Example 86, N-((3^4,8)-1^4,1^4-difluoro-2^6-methyl-3^1H-2(2,4)-pyrimidin-1(1,3),5(1,4)-dipiperidin-3(4,1)-triazole-4(1,2)-benzoazacyclononane-8-en-44-yl)-2-hydroxyethane-1-sulfonamide] | 7.20
Cc1cc2nc(n1)N1CCC(F)(F)C(/C=C\c3ccc(cc3)-c3cc(NS(=O)(=O)CCO)ccc3C(=O)N2)C1 (stereo not shown) [Example 43, N-(2^4,2^4-difluoro-1^6-methyl-7-oxo-8-aza-1(2,4)-pyrimidin-2(1,3)-piperidin-5(1,4),6(1,2)-diphenylcyclooct-3-en-6^5-yl)-2-hydroxyethane-1-sulfonamide] | 5.59
Cc1cc2nc(n1)N1CCC(F)(F)C(C=CCC3CCN(CC3)c3cc(NS(=O)(=O)CCO)ccc3-n3cc-2nn3)C1 (stereo not shown) [Example 81, N-((3^4,7)-1^4,1^4-difluoro-2^6-methyl-3^1H-2(2,4)-pyrimidin-1(1,3),5(1,4)-dipiperidin-3(4,1)-triazole-4(1,2)-benzocyclooct-7-en-44-yl)-2-hydroxyethane-1-sulfonamide] | 7.47
Cc1cc2nc(n1)N1CCC(F)=C(/C=C/CC3CCN(CC3)c3cc(NS(=O)(=O)CCO)ccc3-n3cc-2nn3)C1 [Example 83, N-((3^4Z,7E)-1^4-fluoro-2^6-methyl-1^1,1^2,1^3,16-tetrahydro-3^1H-2(2,4)-pyrimidin-1(1,5)-pyridin-5(1,4)-piperidin-3(4,1)-triazole-4(1,2)-benzylcyclooct-7-en-4^4-yl)-2-hydroxyethane-1-sulfonamide] | 7.00

Reference: patent publication EP4772509A1, “KINESIN KIF18A INHIBITOR, AND APPLICATION THEREOF” (Shanghai Apeiron Therapeutics Company Limited, priority 2023, dated 2025)
